Experimental data from PMC5655031, “A Linear 19-Mer Plant Defensin-Derived Peptide Acts Synergistically with Caspofungin against Candida albicans Biofilms” (Frontiers in Microbiology, 2017).
Where two headings read alike, the source gives them in different places. Numbered stars: 1 amine (or outer) side, 2 acyl side, 3 side chain; on linkers, the order of the positions; unused ones are H or OH. Bridge positions count the residues as written; N and C are the ends. Square brackets hold non-standard residues; d marks the D form. Ends that are not written are not given here. Peptide text beside a SMILES is read from it. * marks the point of attachment. hTyr(3S-OH,4S-OH,3'-OSO3H) = N[C@H](C(=O)O)[C@H](O)[C@@H](O)c1ccc(O)c(OS(=O)(=O)O)c1; pTerphenylCO(4''-OnC5H11) = CCCCCOc1ccc(-c2ccc(-c3ccc(C(=O)*)cc3)cc2)cc1; Orn(4R-OH,5R-OH) = O=C([C@H](C[C@@H](O)[C@@H](O)N[*:3])N[*:1])[*:2]; hTyr(3S-OH,4S-OH) = N[C@H](C(=O)O)[C@H](O)[C@@H](O)c1ccc(O)cc1; Pro(3S-OH,4S-Me) = C[C@H]1CN[C@H](C(=O)O)[C@H]1O; X1 = CCCCCOc1ccc(-c2cc(-c3ccc(C(=O)*)cc3)no2)cc1; Gln(3R-OH) = NC(=O)C[C@@H](O)[C@H](N)C(=O)O; Hyp = O=C(O)[C@@H]1C[C@@H](O)CN1; Abu = CC[C@H](N)C(=O)O

Columns and labels:
[1] = system: Candida albicans biofilms; test: microbe, parasite or virus in culture
[2] = system: C. albicans caspofungin-resistant mutant M177 (fks1 mutant) biofilms; test: microbe, parasite or virus in culture; conditions: Candida albicans, read-out: BIC50 (CASPO) ± SEM
[3] = system: Candida krusei biofilms; test: In vitro biofilm inhibition assay in microtiter plates (XTT quantification); type: cell-based; conditions: Pichia kudriavzevii, caspofungin alone, n = 3, read-out: BIC50 (CASPO) ± SEM
[4] = system: C. albicans biofilms on serum pre-incubated polyurethane catheters; test: In vitro biofilm inhibition assay on catheters; type: cell-based, Candida albicans; conditions: 24 h treatment; CFU
Experimental: Polyurethane catheters, overnight incubated in bovine serum, were infected with C. albicans or C. glabrata cells (5 × 10^4 cells/mL) in RPMI medium (Kucharikova et al., [2015]). […] All experiments were performed in quadruplicate with at least three biological repeats.

[5] = system: Candida dubliniensis biofilms; test: In vitro biofilm inhibition assay in microtiter plates (XTT quantification); type: cell-based; conditions: caspofungin alone, n = 3, read-out: BIC50 (CASPO) ± SEM
[6] = system: C. albicans SC5314 WT planktonic cells; test: Fungicidal activity assay (plating, CFU) on planktonic cells; type: cell-based, Candida albicans; conditions: caspofungin alone, concentrations up to 50 μM, one representative experiment out of 2
Experimental: […] Both at the start and at all measuring points, surviving yeast cells was determined via plating assays. In a plating assay, 10-fold dilution series of yeast cells in PBS were prepared, after which 100 μL was plated on YPD plates. After 1 day of incubation at 37°C, the number of colony forming units (CFU) was counted and cell death was calculated relative to time zero (t0). MFC50 values, indicating the minimum fungicidal concentration resulting in 50% cell death, were determined. In parallel with the plating assay, confocal microscopic or flow cytometric analysis were performed on the samples.

[7] = system: planktonic Candida albicans fks1 mutant cells; test: Flow cytometry: HsLin06_18-FITC uptake and membrane permeabilization (PI), fks1 mutant; type: cell-based; conditions: caspofungin (0.5 μM) alone; 40 minutes; n = 3
Experimental: (§1) Membrane permeabilization and HsLin06_18 internalization were determined via flow cytometric analysis on planktonic C. albicans SC5314 WT cells. Exponentially growing cells were exposed to caspofungin ([…]), HsLin06_18-FITC (4.6 μM) or its combination (as described in the material and methods section “fungicidal activity assay”), and to propidium iodide (PI) (2 μg/mL), after which they were subjected to flow cytometry on a BD Influx™ cell sorter. Per treatment, 10,000 cells were monitored for fluorescence at 530/40 nm (FL2_λex = 488 nm) and 610/20 nm (FL11_ λex = 561 nm) for the detection of HsLin06_18-FITC internalization (FITC+) and membrane permeabilization (PI+), respectively. Data from cells treated with 4.6 μM HsLin06_18-FITC were used as background signal.
[picture] Supplementary Figure S3: HsLin06_18-FITC uptake and membrane permeabilization in planktonic Candida albicans WT and fks1 mutant cells, determined via flow cytometry. Cells were treated for 40 minutes with 0.5 µM caspofungin and/or […] HsLin06_18-FITC (HsL-F) and 2 µg/mL propidium iodide (PI). […]

[8] = system: planktonic C. albicans SC5314 WT cells; test: Flow cytometry: HsLin06_18-FITC uptake and membrane permeabilization (PI); type: cell-based, Candida albicans; conditions: 0.01 μM caspofungin alone; vs t0
Experimental: as §1

[9] = system: Candida albicans biofilms; test: In vitro biofilm inhibition assay in microtiter plates (XTT quantification); type: cell-based; conditions: caspofungin alone, n = 3, read-out: BIC50 (CASPO) ± SEM
[10] = system: C. albicans biofilms on catheter pieces; test: In vivo biofilm inhibition assay, subcutaneous rat catheter model; conditions: intravenously (IV) administered, once daily for 7 days; CFU
Experimental: All animal experiments were in accordance with the KU Leuven animal care guidelines and approved by the Ethical Committee of the KU Leuven (P069/2016). In vivo C. albicans biofilms were formed inside catheter pieces in immunosuppressed female Sprague–Dawley rats (200 g) as described previously (Ricicova et al., [2010]). Briefly, serum pre-incubated catheters were infected with C. albicans cells (5 × 10^4 cells/mL) prepared in RPMI medium during the adhesion period (90 min at 37°C). After a washing step, 9 catheter pieces were implanted into the back area of one rat. Inhibition of in vivo C. albicans biofilm formation was initiated immediately after the implant. […] Catheters were explanted from euthanized animals and the number of cells per individual biofilm was determined by CFU (Ricicova et al., [2010]). In vivo experiments were performed once (in total three animals/group).

[11] = system: Candida glabrata biofilms; test: In vitro biofilm inhibition assay in microtiter plates (XTT quantification); type: cell-based; conditions: Nakaseomyces glabratus, caspofungin alone, n = 3, read-out: BIC50 (CASPO) ± SEM
[12] = HsLin06_18 cytotoxicity assay (MTT); type: cell-based; conditions: human, 24 h treatment, relative to 1% DMSO control, read-out: EC50 (half maximal effective concentration), cytotoxicity
Experimental: Drug cytotoxicity testing was performed as described previously (Vriens et al., [2015b]). Briefly, human hepatoma (HepG2) cells were treated for 24 h with caspofungin, HsLin06_18, its combination or control treatment (1% DMSO). Cell viability was determined by MTT staining (Roche Diagnostics, Germany) and expressed relative to the control treatment. All experiments were performed in quadruplicate with at least three biological repeats.

[13] = system: C. albicans caspofungin-resistant mutant M177 (fks1 mutant) biofilms; conditions: fks1 mut
[14] = system: Candida albicans biofilms; conditions: Caspofungin + HsLin; microtiter plate; means for n ≥ 2
[15] = system: candidiasis; conditions: administered systemically at 7 or 14 mg/kg/day; ref Tavares et al., 2008; cited from earlier work
[16] = read-out: BIC50 (echinocandin) ± SEM

With `CCCCCOc1ccc(-c2ccc(-c3ccc(C(=O)N[C@H]4C[C@@H](O)[C@@H](O)NC(=O)[C@@H]5[C@@H](O)[C@@H](C)CN5C(=O)[C@H]([C@@H](C)O)NC(=O)[C@H]([C@H](O)[C@@H](O)c5ccc(O)cc5)NC(=O)[C@@H]5C[C@@H](O)CN5C(=O)[C@H]([C@@H](C)O)NC4=O)cc3)cc2)cc1` [Anidulafungin] ({pTerphenylCO(4''-OnC5H11)}-[Orn(4R-OH,5R-OH)]T[Hyp][hTyr(3S-OH,4S-OH)]T[Pro(3S-OH,4S-Me)]; lactam 1-C) the IC50 [1, 16] was 930 ± 120 nM.

In the case of `CC[C@H](C)C[C@H](C)CCCCCCCCC(=O)N[C@H]1C[C@@H](O)[C@@H](NCCN)NC(=O)[C@@H]2[C@@H](O)CCN2C(=O)[C@H]([C@H](O)CCN)NC(=O)[C@H]([C@H](O)[C@@H](O)c2ccc(O)cc2)NC(=O)[C@@H]2C[C@@H](O)CN2C(=O)[C@H]([C@@H](C)O)NC1=O` [Caspofungin], the IC50 [2] is reported as 7400 ± 1360 nM, the IC50 [3] is reported as 1090 ± 12 nM and the “sub-lethal dose in the in vitro catheter setup” value [4] is reported as 0.4 µM. The IC50 [5] was 920 ± 17 nM, the cell death [6] was 30% and the “cells with permeabilized membranes” value [7] was less than 0.2%. For the same molecule, the “population of cells with compromised membranes” value [8] was “not significantly increased after 40 min”, the IC50 [9] was 700 ± 92 nM and the “sub-lethal dose in the subcutaneous rat catheter model” value [10] was 0.25 mg/kg/day. The IC50 [11] was 1000 ± 115 nM, the IC50 ([1]; read-out: BIC50 (CASPO) ± SEM) was 830 ± 96 nM and the IC50 [1, 16] was 960 ± 40 nM.

Molecule `CC[C@H](NC(=O)[C@H](C)NC(=O)CNC(=O)CNC(=O)[C@H](Cc1ccc(O)cc1)NC(=O)[C@H](C)NC(=O)[C@@H](N)Cc1ccccc1)C(=O)N[C@@H](Cc1c[nH]cn1)C(=O)N[C@@H](Cc1ccc(O)cc1)C(=O)N[C@@H](CCC(N)=O)C(=O)N[C@@H](Cc1ccccc1)C(=O)N1CCC[C@H]1C(=O)N[C@@H](CO)C(=O)N[C@H](C(=O)N[C@@H](CCCCN)C(=O)N[C@@H](CC)C(=O)N[C@@H](Cc1ccccc1)C(=O)N[C@@H](CC)C(=O)N[C@@H](CCCCN)C(=O)O)C(C)C` [HsLin06_18] (H-FAYGGA[Abu]HYQFPSVK[Abu]F[Abu]K-OH) has an EC50 at 24 h [12] greater than 50000 nM, an FICI ([13]; caspofungin + 2.5 µM HsLin06_18) of less than 0.5 and an FICI ([13]; caspofungin + 5 µM HsLin06_18) of less than 0.5.

Work on `CCCCCOc1ccc(-c2cc(-c3ccc(C(=O)N[C@H]4C[C@@H](O)[C@@H](O)NC(=O)[C@@H]5[C@@H](O)[C@@H](C)CN5C(=O)[C@H]([C@H](O)CC(N)=O)NC(=O)[C@H]([C@H](O)[C@@H](O)c5ccc(O)c(OS(=O)(=O)O)c5)NC(=O)[C@@H]5C[C@@H](O)CN5C(=O)[C@H]([C@@H](C)O)NC4=O)cc3)no2)cc1` [Micafungin] (X1-[Orn(4R-OH,5R-OH)]T[Hyp][hTyr(3S-OH,4S-OH,3'-OSO3H)][Gln(3R-OH)][Pro(3S-OH,4S-Me)]; lactam 1-C) yielded an IC50 [1, 16] of 400 ± 88 nM.

For “FAYGGACHYQFPSVKCFXK (disulfide) [HsLin06_18_22]”, the “Fold change (reduction of the BIC50 of caspofungin by co-incubation with HsLin06_18 or HsLin06_18-variants)” value [14] was 1.77.

For “FAYGGACHYQFPSVKXFCK (disulfide) [HsLin06_18_20]”, the “Fold change (reduction of the BIC50 of caspofungin by co-incubation with HsLin06_18 or HsLin06_18-variants)” value [14] was 1.97.

In the case of “RsAFP2: plant defensin (QKLCQRPSGTWSGVCGNNNACKNQCIRLEKARHGSCNYVFPAHKCICYFPC; ends and bridges not checked; cysteine pairing not given here; UniProt P30230 30-80, looked up)”, the “in vivo efficacy against candidiasis” value [15] is given as “prophylactically effective”.
